Reference: patent US20260256792A1, “TREATMENT OF CHRONIC SPONTANEOUS URTICARIA BY ADMINISTERING (R)-2-[3-[4-AMINO-3-(2-FLUORO-4-PHENOXY-PHENYL)PYRAZOLO[3,4-D]PYRIMIDIN-1-YL]PIPERIDINE-1-CARBONYL]-4-METHYL-4-[4-(OXETAN-3-YL)PIPERAZIN-1-YL]PENT-2-ENENITRILE” (priority 2023, published 2026)

Test system: moderate-to-severe chronic spontaneous urticaria (CSU)
Test: Phase 2 CSU study: itch severity score over 7 days (ISS7)
Assay type: in vivo, human
Description: The study comprises a 12 week, randomized, double-blind, placebo-controlled, multi-center, dose-ranging efficacy and safety phase, followed by a 40 week open label extension (OLE) phase (see FIG. 1). The study consists of three phases and an optional OLE phase. […] Clinically, CSU is characterized by the spontaneous and recurrent appearance of pruritic hives. The proposed primary endpoints were the UAS7 at Week 12 in EU and EU reference countries and the ISS7 in the US. Regardless of where a participant was from, all assessments were the same. The UAS7 score is a composite score containing both the HSS7 and the ISS7. This allowed a global assessment of the two key components of urticaria: hives and itch. […] The UAS is a validated PRO measure. […] The daily UAS scores range from 0 to 6 point/day. […] Patients were to complete the UAS using the e-diary. […] The following secondary endpoints were to be analyzed using the same approach as for the primary endpoint: • Change from baseline in UAS7 at Week 4 • Change from baseline in UAS7 at Week 12 (for US and US reference countries) • Change from baseline in ISS7 at Week 12 (except US and US reference countries) • Change from baseline in HSS7 at Week 12

[1] = Week 4, 400 mg TID, Prior Omalizumab Use
[2] = Week 5, 400 mg BID, Omalizumab-Naïve
[3] = Week 5, 400 mg BID, Prior Omalizumab Use
[4] = Week 5, 400 mg QPM, Omalizumab-Naïve
[5] = Week 5, 400 mg QPM, Prior Omalizumab Use
[6] = Week 5, 400 mg TID, Omalizumab-Naïve
[7] = Week 5, 400 mg TID, Prior Omalizumab Use
[8] = Week 6, 400 mg BID, Omalizumab-Naïve
[9] = Week 6, 400 mg BID, Prior Omalizumab Use
[10] = Week 6, 400 mg QPM, Omalizumab-Naïve
[11] = Week 6, 400 mg QPM, Prior Omalizumab Use
[12] = Week 6, 400 mg TID, Omalizumab-Naïve
[13] = Week 6, 400 mg TID, Prior Omalizumab Use
[14] = Week 7, 400 mg BID, Omalizumab-Naïve
[15] = Week 7, 400 mg BID, Prior Omalizumab Use
[16] = Week 7, 400 mg QPM, Omalizumab-Naïve
[17] = Week 7, 400 mg QPM, Prior Omalizumab Use

CC(C)(C=C(C#N)C(=O)N1CCC[C@@H](n2nc(-c3ccc(Oc4ccccc4)cc3F)c3c(N)ncnc32)C1)N1CCN(C2COC2)CC1 [rilzabrutinib, (R)-2-[3-[4-amino-3-(2-fluoro-4-phenoxy-phenyl)pyrazolo[3,4-d]pyrimidin-1-yl]piperidine-1-carbonyl]-4-methyl-4-[4-(oxetan-3-yl)piperazin-1-yl]pent-2-enenitrile]
ISS7 Mean (SD) [1]: 6.17 (6.41)
ISS7 Median [1]: 5.42
ISS7 Percent change from baseline Mean (SD) [1]: −61.65 (32.63) %
ISS7 Percent change from baseline Median [1]: −62.50%
ISS7 Change from baseline Mean (SD) [2]: −6.55 (6.17)
ISS7 Change from baseline Median [2]: −6.42
ISS7 Mean (SD) [2]: 8.88 (6.81)
ISS7 Median [2]: 8.50
ISS7 Percent change from baseline Mean (SD) [2]: −43.73 (41.21) %
ISS7 Percent change from baseline Median [2]: −39.85%
ISS7 Change from baseline Median [3]: −14.50
ISS7 Mean (SD) [3]: 5.50 (8.54)
ISS7 Median [3]: 2.00
ISS7 Percent change from baseline Mean (SD) [3]: −68.33 (47.26) %
ISS7 Percent change from baseline Median [3]: −86.67%
ISS7 Change from baseline Mean (SD) [4]: −5.53 (4.98)
ISS7 Change from baseline Median [4]: −4.10
ISS7 Mean (SD) [4]: 11.00 (4.68)
ISS7 Percent change from baseline Mean (SD) [4]: −31.93 (26.18) %
ISS7 Percent change from baseline Median [4]: −30.00%
ISS7 Change from baseline Mean (SD) [5]: −10.00 (NC)
ISS7 Change from baseline Median [5]: −10.00
ISS7 Mean (SD) [5]: 11.00 (NC)
ISS7 Percent change from baseline Mean (SD) [5]: −47.62 (NC) %
ISS7 Percent change from baseline Median [5]: −47.62%
ISS7 Change from baseline Mean (SD) [6]: −9.18 (6.46)
ISS7 Change from baseline Median [6]: −9.00
ISS7 Mean (SD) [6]: 6.92 (5.87)
ISS7 Median [6]: 7.00
ISS7 Percent change from baseline Mean (SD) [6]: −55.68 (34.88) %
ISS7 Percent change from baseline Median [6]: −56.25%
ISS7 Mean (SD) [7]: 5.50 (6.53)
ISS7 Median [7]: 3.00
ISS7 Percent change from baseline Mean (SD) [7]: −66.60 (31.51) %
ISS7 Percent change from baseline Median [7]: −72.43%
ISS7 Change from baseline Mean (SD) [8]: −6.58 (5.90)
ISS7 Change from baseline Median [8]: −5.75
ISS7 Mean (SD) [8]: 8.85 (6.40)
ISS7 Percent change from baseline Mean (SD) [8]: −42.90 (39.02) %
ISS7 Percent change from baseline Median [8]: −33.40%
ISS7 Change from baseline Mean (SD) [9]: −10.13 (9.42)
ISS7 Change from baseline Median [9]: −14.00
ISS7 Mean (SD) [9]: 7.07 (8.32)
ISS7 Median [9]: 2.33
ISS7 Percent change from baseline Mean (SD) [9]: −56.44 (51.68) %
ISS7 Change from baseline Mean (SD) [10]: −6.59 (5.45)
ISS7 Change from baseline Median [10]: −5.00
ISS7 Mean (SD) [10]: 10.27 (5.26)
ISS7 Percent change from baseline Mean (SD) [10]: −38.20 (29.52) %
ISS7 Percent change from baseline Median [10]: −31.67%
ISS7 Change from baseline Mean (SD) [11]: −12.00 (NC)
ISS7 Change from baseline Median [11]: −12.00
ISS7 Mean (SD) [11]: 9.00 (NC)
ISS7 Median [11]: 9.00
ISS7 Percent change from baseline Mean (SD) [11]: −57.14 (NC) %
ISS7 Percent change from baseline Median [11]: −57.14%
ISS7 Change from baseline Mean (SD) [12]: −8.71 (6.32)
ISS7 Change from baseline Median [12]: −7.50
ISS7 Mean (SD) [12]: 7.32 (6.05)
ISS7 Median [12]: 7.00
ISS7 Percent change from baseline Mean (SD) [12]: −53.59 (35.59) %
ISS7 Percent change from baseline Median [12]: −50.00%
ISS7 Change from baseline Mean (SD) [13]: −12.83 (7.49)
ISS7 Change from baseline Median [13]: −14.50
ISS7 Mean (SD) [13]: 4.17 (6.88)
ISS7 Median [13]: 2.00
ISS7 Percent change from baseline Mean (SD) [13]: −75.50 (33.00) %
ISS7 Percent change from baseline Median [13]: −88.10%
ISS7 Change from baseline Mean (SD) [14]: −7.28 (5.95)
ISS7 Change from baseline Median [14]: −8.08
ISS7 Mean (SD) [14]: 8.21 (6.16)
ISS7 Median [14]: 7.00
ISS7 Percent change from baseline Mean (SD) [14]: −46.93 (37.51) %
ISS7 Percent change from baseline Median [14]: −56.35%
ISS7 Change from baseline Mean (SD) [15]: −10.40 (9.91)
ISS7 Change from baseline Median [15]: −13.00
ISS7 Mean (SD) [15]: 6.80 (8.56)
ISS7 Median [15]: 2.00
ISS7 Percent change from baseline Mean (SD) [15]: −57.33 (52.62) %
ISS7 Percent change from baseline Median [15]: −86.67%
ISS7 Change from baseline Mean (SD) [16]: −6.11 (5.15)
ISS7 Change from baseline Median [16]: −5.20
ISS7 Mean (SD) [16]: 10.68 (5.34)
ISS7 Percent change from baseline Mean (SD) [16]: −36.22 (29.09) %
ISS7 Percent change from baseline Median [16]: −37.78%
ISS7 Change from baseline Mean (SD) [17]: −13.00 (NC)
ISS7 Change from baseline Median [17]: −13.00
ISS7 Mean (SD) [17]: 8.00 (NC)
ISS7 Median [17]: 8.00
ISS7 Percent change from baseline Mean (SD) [17]: −61.90 (NC) %
ISS7 Percent change from baseline Median [17]: −61.90%
